Common to all, as to experiment: SILAC RP-ABPP
Type in all cases: cell-based

For assay [1], the target named is T1, FASTICD5 FAST kinase domain containing (Q7L8L6) (Homo sapiens, UniProt Q7L8L6).
T1 construct: shared by both the endogenous and recombinant forms of these proteins; endogenous in cells; host or cells: HEK293T and MDA-MB-231
T1 sequence (Q7L8L6 28-764): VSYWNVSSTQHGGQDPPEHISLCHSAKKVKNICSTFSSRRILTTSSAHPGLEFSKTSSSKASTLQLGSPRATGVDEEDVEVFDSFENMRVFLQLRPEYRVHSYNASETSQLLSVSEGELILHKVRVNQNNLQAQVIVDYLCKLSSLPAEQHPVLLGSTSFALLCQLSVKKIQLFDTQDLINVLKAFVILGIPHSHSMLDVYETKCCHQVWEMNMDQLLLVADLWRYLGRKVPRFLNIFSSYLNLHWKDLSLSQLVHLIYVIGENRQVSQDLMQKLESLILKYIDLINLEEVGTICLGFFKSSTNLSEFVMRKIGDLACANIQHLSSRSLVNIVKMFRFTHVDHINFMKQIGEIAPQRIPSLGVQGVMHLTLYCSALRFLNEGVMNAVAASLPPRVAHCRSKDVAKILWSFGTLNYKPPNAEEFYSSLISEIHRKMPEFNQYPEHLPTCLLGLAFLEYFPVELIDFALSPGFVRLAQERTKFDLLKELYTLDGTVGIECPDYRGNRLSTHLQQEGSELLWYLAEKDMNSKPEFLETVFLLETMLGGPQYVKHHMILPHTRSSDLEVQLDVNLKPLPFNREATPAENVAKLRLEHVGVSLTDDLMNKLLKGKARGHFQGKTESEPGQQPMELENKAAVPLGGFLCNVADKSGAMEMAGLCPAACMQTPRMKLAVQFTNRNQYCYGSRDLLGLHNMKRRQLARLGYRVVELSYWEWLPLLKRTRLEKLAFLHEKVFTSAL
Particulars: SILAC H/L, HEK293T.

Assay [2] concerns the target T2, PLD3 Phospholipase D3 (Q8IV08) (Homo sapiens, UniProt Q8IV08).
T2 construct: shared by both the endogenous and recombinant forms of these proteins; endogenous in cells; host or cells: HEK293T and MDA-MB-231
T2 sequence (Q8IV08 1-490): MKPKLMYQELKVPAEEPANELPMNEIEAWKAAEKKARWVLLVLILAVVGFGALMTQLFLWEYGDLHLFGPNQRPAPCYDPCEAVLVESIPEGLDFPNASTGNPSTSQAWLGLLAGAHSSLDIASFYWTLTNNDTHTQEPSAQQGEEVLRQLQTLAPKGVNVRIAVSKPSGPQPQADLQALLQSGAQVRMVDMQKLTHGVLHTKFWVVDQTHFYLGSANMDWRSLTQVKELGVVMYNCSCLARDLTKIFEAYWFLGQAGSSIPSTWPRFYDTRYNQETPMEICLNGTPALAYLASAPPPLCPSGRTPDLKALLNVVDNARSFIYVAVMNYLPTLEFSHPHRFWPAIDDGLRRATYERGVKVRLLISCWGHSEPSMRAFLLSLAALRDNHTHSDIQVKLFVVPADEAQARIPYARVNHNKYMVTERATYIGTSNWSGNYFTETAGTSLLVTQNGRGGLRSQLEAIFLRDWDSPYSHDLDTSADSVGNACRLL
Conditions: SILAC H/L, HEK293T.

In assay [3] the target is T3, SERPINE1 Plasminogen activator inhibitor 1 (P05121) (Homo sapiens, UniProt P05121).
T3 construct: In Situ Labelling of Cells with Hydrazine Probes for MS Experiments; endogenous in cells
T3 sequence (P05121 24-402): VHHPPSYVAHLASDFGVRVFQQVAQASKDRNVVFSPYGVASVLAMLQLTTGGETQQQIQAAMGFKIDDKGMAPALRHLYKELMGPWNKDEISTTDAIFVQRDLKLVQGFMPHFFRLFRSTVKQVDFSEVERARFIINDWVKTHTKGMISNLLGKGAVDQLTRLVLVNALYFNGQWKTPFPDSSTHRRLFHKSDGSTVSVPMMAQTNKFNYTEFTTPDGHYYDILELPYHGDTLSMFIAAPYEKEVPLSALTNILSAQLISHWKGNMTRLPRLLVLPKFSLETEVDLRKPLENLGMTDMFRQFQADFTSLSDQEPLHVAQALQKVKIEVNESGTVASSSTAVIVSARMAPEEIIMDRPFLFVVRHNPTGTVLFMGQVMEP
Particulars: SILAC H/L, MDA-MB-231.

As to `C#CCNN.Cl` [probe 1, prop-2-yn-1-ylhydrazine hydrochloride], the results for the enrichment ratioavg in assay [1] (probe 1 3 mM 0.5 h vs probe 3), in assay [2] (probe 1 3 mM 0.5 h vs probe 3) and in assay [3] (probe 1 3 mM 0.5 h vs probe 3) were 18, 12 and 17, respectively. Moreover, the competition ratioavg in assay [1] (probe 1 vs probe 1+10x probe 3) is recorded as 3; in assay [2] (probe 1 vs probe 1+10x probe 3), 2; in assay [3] (probe 1 vs probe 1+10x probe 3), 3.

`C#CCCNC(=O)c1ccc(NN)cc1.Cl` [probe 2, N-(but-3-yn-1-yl)-4-hydrazinylbenzamide hydrochloride]: the values for the enrichment ratioavg in assay [1] (probe 2 1 mM 0.5 h vs probe 4), in assay [2] (probe 2 1 mM 0.5 h vs probe 4) and in assay [3] (probe 2 1 mM 0.5 h vs probe 4) were 10, 5 and 20, respectively. The competition ratioavg in assay [1] (probe 2 vs probe 2+10x probe 4) is listed as 3; in assay [2] (probe 2 vs probe 2+10x probe 4) it was 2; in assay [3] (probe 2 vs probe 2+10x probe 4), 3.

The values above are taken from US11226337B2, “Chemoproteomic profiling of protein electrophilic and oxidative post-translational modifications” (Zenagem, LLC, priority 2017, dated 2022).
